Data as given in patent US20240246918A1, “COMPOUNDS AND COMPOSITIONS AS EIF4E INHIBITORS AND THE USES THEREOF” (Ribometrix, Inc., priority 2022, published 2024).

Columns and labels:
[1] = target: T1, human eIF4E protein (Homo sapiens, UniProt P06730); assay: Biochemical competitive binding assay (TR-FRET competition, EDA-m7GDP-ATTO-647N probe); conditions: read-out: hEIF4E TR-FRET IC50
T1 construct: purchased Novus NBP-45314
How it was run: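 His-tagged human eIF4E (4 nM) was preincubated with Eu-anti-His antibody (2.5 nM) and added to compound (11-point, 4-fold dilutions) for 15 min. Then 5 nM EDA-m7GDP-ATTO-647N was added for 15 min, in HEPES pH 7.5, 100 mM KCl. The 665/620 TR-FRET ratio was normalized to controls, and IC50 was taken from 4-parameter fits.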

[2] = system: COLO 205 colorectal tumor cells; assay: Tumor cell viability inhibition assay (CellTiter-Glo 2.0, 72 hours); format: cell-based; conditions: COLO 205 cell viability
How it was run: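 COLO 205 cells (1500/well, RPMI-1640 + 10% FBS) exposed for 72 h to an 11-point, 4-fold dilution series; cellular ATP read by CellTiter-Glo 2.0 luminescence. Data normalized to DMSO and maximum-inhibition controls; IC50 from 4-parameter curve fit.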

T1 sequence (P06730 whole entry): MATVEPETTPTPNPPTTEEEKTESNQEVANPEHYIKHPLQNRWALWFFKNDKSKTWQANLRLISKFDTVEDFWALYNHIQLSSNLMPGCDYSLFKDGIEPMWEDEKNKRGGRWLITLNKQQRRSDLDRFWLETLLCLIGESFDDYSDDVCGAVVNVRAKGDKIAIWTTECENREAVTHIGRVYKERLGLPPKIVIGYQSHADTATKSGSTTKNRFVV

Row | Compound | IC50 [1] [nM] | IC50 ([2]; Homo sapiens, COLO 205, 72 h) [nM] | IC50 [2] [nM]
1 | Cc1cc(-c2cc(Cl)ccc2OCCn2c(C)nc3c(c2=O)C[C@@H](N2CCC(c4nccs4)CC2)CC3)c2scc(C(=O)O)c2n1 (single isomer, unassigned) [Compound 476] | < 100 | < 5000 | 
2 | Cc1cc(-c2cc(Cl)ccc2OCCn2c(C)nc3c(c2=O)C[C@H](N2CCO[C@@H](COC(F)(F)F)C2)CC3)c2scc(C(=O)O)c2n1 (single isomer, unassigned) [Compound 477] | < 100 | < 5000 | 
3 | Cc1cc(-c2cc(Cl)ccc2OCCn2c(C)nc3c(c2=O)C[C@H](N2CCO[C@H](COC(F)(F)F)C2)CC3)c2scc(C(=O)O)c2n1 (single isomer, unassigned) [Compound 478] | < 100 | < 5000 | 
4 | Cc1cc(-c2cc(Cl)ccc2OCCn2c(C)nc3c(c2=O)C[C@@H](N2CCO[C@@H](COC(F)(F)F)C2)CC3)c2scc(C(=O)O)c2n1 (single isomer, unassigned) [Compound 479] | < 100 | < 5000 | 
5 | Cc1cc(-c2cc(Cl)ccc2OCCn2c(C)nc3c(c2=O)C[C@@H](N2CCO[C@H](COC(F)(F)F)C2)CC3)c2scc(C(=O)O)c2n1 (single isomer, unassigned) [Compound 480] | < 100 | < 5000 | 
6 | Cc1csc([C@@H]2CCCN([C@H]3CCc4nc(C)n(CCOc5ccc(Cl)cc5-c5cc(C)nc6c(C(=O)O)csc56)c(=O)c4C3)C2)n1 (single isomer, unassigned) [Compound 481] | < 100 | < 5000 | 
7 | Cc1csc([C@H]2CCCN([C@H]3CCc4nc(C)n(CCOc5ccc(Cl)cc5-c5cc(C)nc6c(C(=O)O)csc56)c(=O)c4C3)C2)n1 (single isomer, unassigned) [Compound 482] | < 100 | < 5000 | 
8 | Cc1csc([C@H]2CCCN([C@@H]3CCc4nc(C)n(CCOc5ccc(Cl)cc5-c5cc(C)nc6c(C(=O)O)csc56)c(=O)c4C3)C2)n1 (single isomer, unassigned) [Compound 483] | < 100 | < 5000 | 
9 | Cc1csc([C@@H]2CCCN([C@@H]3CCc4nc(C)n(CCOc5ccc(Cl)cc5-c5cc(C)nc6c(C(=O)O)csc56)c(=O)c4C3)C2)n1 (single isomer, unassigned) [Compound 484] | < 100 | < 5000 | 
10 | Cc1cc(-c2cc(Cl)ccc2OCCn2c(C)nc3c(c2=O)C[C@H](N2CCC[C@H](c4cnn(C)c4)C2)CC3)c2scc(C(=O)O)c2n1 (single isomer, unassigned) [Compound 485] | < 100 | < 5000 | 
11 | Cc1cc(-c2cc(Cl)ccc2OCCn2c(C)nc3c(c2=O)C[C@H](N2CCC(c4cn(C)cn4)CC2)CC3)c2scc(C(=O)O)c2n1 (single isomer, unassigned) [Compound 486] | < 100 | > 20000 | 
12 | Cc1cc(-c2cc(Cl)ccc2OCCn2c(C)nc3c(c2=O)C[C@@H](N2CCC(c4cn(C)cn4)CC2)CC3)c2scc(C(=O)O)c2n1 (single isomer, unassigned) [Compound 487] | < 100 | > 20000 | 
13 | Cc1cc(-c2cc(Cl)ccc2OCCn2c(C)nc3c(c2=O)C[C@H](N2CCC(c4noc5ccc(F)cc45)CC2)CC3)c2scc(C(=O)O)c2n1 (single isomer, unassigned) [Compound 488] | < 100 | < 5000 | 
14 | Cc1cc(-c2cc(Cl)ccc2OCCn2c(C)nc3c(c2=O)C[C@H](N2CCC4(CC2)CC(F)(F)CO4)CC3)c2scc(C(=O)O)c2n1 (single isomer, unassigned) [Compound 489] | < 100 | < 5000 | 
15 | Cc1cc(-c2cc(Cl)ccc2OCCn2c(C)nc3c(c2=O)C[C@@H](N2CCC4(CC2)CC(F)(F)CO4)CC3)c2scc(C(=O)O)c2n1 (single isomer, unassigned) [Compound 490] | < 100 | < 5000 | 
16 | COC1CCN(C2CCc3nc(C)n(CC#Cc4ccc(Cl)cc4-c4ccnc5c(C(=O)NS(C)(=O)=O)csc45)c(=O)c3C2)CC1 (single isomer, unassigned) [Compound 491] | < 100 |  | < 5000
17 | Cc1cc(-c2cc(Cl)ccc2OCCn2c(C)nc3c(c2=O)CC(N2CCC(CC(F)(F)F)CC2)CC3(C)C)c2scc(C(=O)O)c2n1 (single isomer, unassigned) [Compound 492] | < 100 | < 5000 | 
18 | Cc1cc(-c2cc(Cl)ccc2OCCn2c(C)nc3c(c2=O)C[C@@H](N(C)C24CC5CC(CC(C5)C2)C4)CC3)c2scc(C(=O)O)c2n1 (single isomer, unassigned) [Compound 493] | < 100 | < 5000 | 
19 | Cc1cc(-c2cc(Cl)ccc2OCCn2c(C)nc3c(c2=O)C[C@H](N2CC4CCC(C2)C4OC(F)(F)F)CC3)c2scc(C(=O)O)c2n1 (single isomer, unassigned) [Compound 494] | < 100 | < 5000 | 

Row | Compound | IC50 [1] [nM] | IC50 ([2]; Homo sapiens, COLO 205, 72 h) [nM] | IC50 [2] [nM]
20 | Cc1cc(-c2cc(Cl)ccc2OCCn2c(C)nc3c(c2=O)C[C@@H](N2CC4CCC(C2)C4OC(F)(F)F)CC3)c2scc(C(=O)O)c2n1 (single isomer, unassigned) [Compound 495] | < 100 | < 5000 | 
21 | COC1CCN(C2(C)CCc3nc(C)n(CCOc4ccc(Cl)cc4-c4cc(C)nc5c(C(=O)O)csc45)c(=O)c3C2)CC1 (single isomer, unassigned) [Compound 496] | < 100 |  | < 5000
22 | COC1CCN(C2(C)CCc3nc(C)n(CCOc4ccc(Cl)cc4-c4cc(C)nc5c(C(=O)O)csc45)c(=O)c3C2)CC1 (single isomer, unassigned) [Compound 497] | 100 to 500 |  | > 20000
23 | Cc1cc(-c2cc(Cl)ccc2OCCn2c(C)nc3c(c2=O)C[C@@H](N2C[C@@H]4CC[C@H]2CC4OC(F)(F)F)CC3)c2scc(C(=O)O)c2n1 (single isomer, unassigned) [Compound 498] | < 100 | < 5000 | 
24 | Cc1cc(-c2cc(Cl)ccc2OCCn2c(C)nc3c(c2=O)C[C@H](N2C[C@H]4CC[C@@H]2CC4OC(F)(F)F)CC3)c2scc(C(=O)O)c2n1 (single isomer, unassigned) [Compound 499] | < 100 | < 5000 | 
25 | Cc1cc(-c2cc(Cl)ccc2OCCn2c(C)nc3c(c2=O)CC(N2CCC(CC(F)(F)F)CC2)CC3(C)C)c2scc(C(=O)O)c2n1 (single isomer, unassigned) [Compound 500] | < 100 |  | < 5000
26 | Cc1cc(-c2cc(Cl)ccc2OCCn2c(C)nc3c(c2=O)C[C@H](N2C[C@@H]4CC[C@H]2CC4OC(F)(F)F)CC3)c2scc(C(=O)O)c2n1 (single isomer, unassigned) [Compound 501] | < 100 | < 5000 | 
27 | Cc1cc(-c2cc(Cl)ccc2OCCn2c(C)nc3c(c2=O)C[C@@H](N2C[C@H]4CC[C@@H]2CC4OC(F)(F)F)CC3)c2scc(C(=O)O)c2n1 (single isomer, unassigned) [Compound 502] | < 100 | < 5000 | 
28 | COC1(C(F)(F)F)CC2CCC(C1)N2[C@H]1CCc2nc(C)n(CCOc3ccc(Cl)cc3-c3cc(C)nc4c(C(=O)O)csc34)c(=O)c2C1 (single isomer, unassigned) [Compound 503] | 100 to 500 | 5000 to 20000 | 
29 | COC1(C(F)(F)F)CC2CCC(C1)N2[C@@H]1CCc2nc(C)n(CCOc3ccc(Cl)cc3-c3cc(C)nc4c(C(=O)O)csc34)c(=O)c2C1 (single isomer, unassigned) [Compound 504] | < 100 | < 5000 | 
30 | Cc1cc(-c2cc(Cl)ccc2OCCn2c(C)nc3c(c2=O)CC(N2CCC4(CCN(CC(F)(F)F)C4)C2)CC3)c2scc(C(=O)O)c2n1 (single isomer, unassigned) [Compound 505] | < 100 | < 5000 | 
31 | Cc1cc(-c2cc(Cl)ccc2OCCn2c(C)nc3c(c2=O)CC(N2CCC4(CCN(CC(F)(F)F)C4)C2)CC3)c2scc(C(=O)O)c2n1 (single isomer, unassigned) [Compound 506] | < 100 |  | < 5000
32 | Cc1cc(-c2cc(Cl)ccc2OCCn2c(C)nc3c(c2=O)CC(N2CC4(CCCN(CC(F)(F)F)C4)C2)CC3)c2scc(C(=O)O)c2n1 (single isomer, unassigned) [Compound 507] | < 100 | < 5000 | 
33 | Cc1cc(-c2cc(Cl)ccc2OCCn2c(C)nc3c(c2=O)CC(N2CC4(CCCN(CC(F)(F)F)C4)C2)CC3)c2scc(C(=O)O)c2n1 (single isomer, unassigned) [Compound 508] | < 100 |  | < 5000
34 | Cc1cc(-c2cc(Cl)ccc2OCCn2c(C)nc3c(c2=O)CC(N2CC4(CCCNC4)C2)CC3)c2scc(C(=O)O)c2n1 (single isomer, unassigned) [Compound 509] | < 100 | > 20000 | 
35 | Cc1cc(-c2cc(Cl)ccc2OCCn2c(C)nc3c(c2=O)CC(N2CC4(CCCNC4)C2)CC3)c2scc(C(=O)O)c2n1 (single isomer, unassigned) [Compound 510] | < 100 |  | > 20000
36 | Cc1cc(-c2cc(Cl)ccc2OCCn2c(C)nc3c(c2=O)CC(N2CCC4(CN(CC(F)(F)F)CC(F)(F)C4)C2)CC3)c2scc(C(=O)O)c2n1 (single isomer, unassigned) [Compound 511] | < 100 | < 5000 | 
37 | Cc1cc(-c2cc(Cl)ccc2OCCn2c(C)nc3c(c2=O)CC(N2CCC4(CN(CC(F)(F)F)CC(F)(F)C4)C2)CC3)c2scc(C(=O)O)c2n1 (single isomer, unassigned) [Compound 512] | < 100 |  | < 5000
38 | Cc1cc(-c2cc(Cl)ccc2OCCn2c(C)nc3c(c2=O)C[C@H](N2CCC[C@@]4(CN(CC(F)(F)F)CC4(F)F)C2)CC3)c2scc(C(=O)O)c2n1 (single isomer, unassigned) [Compound 513] | < 100 | < 5000 | 
